Converted amounts (≈) assume the structure as drawn.

The first assay deals with SAUR 9218. Put plainly: MIC Test Method, standard agar dilution. In kind it is cell-based. The note with it: agar dilution, Mueller Hinton agar, incubated overnight at 35° C.; lowest concentration that inhibits visible growth. The essentials: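 Agar dilution in Mueller Hinton agar with serial 2-fold compound dilutions. Staphylococcus aureus strain 9218 spotted at approximately 10^4 to 10^5 cells per spot, incubated overnight at 35 °C; MIC (μg/ml) is the lowest concentration preventing visible growth.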
On to `O=C(Nc1ccc(Cl)cc1C(=O)O)c1cc(-c2ccccc2)on1` [drawing 1111], for which the “SAUR 9218 MIC” value came to 0.5 µg/mL.

The same assay, now with this note: agar dilution, Mueller Hinton agar, incubated overnight at 35° C.; lowest concentration that inhibits visible growth; read-out: SAUR 9218 MIC.
In general, MIC refers to the lowest concentration found to suppress growth. For the compound `O=C(Nc1ccc(Br)cc1C(=O)O)c1ccc(Br)o1`, the MIC was 64 µg/mL (≈ 165 µM).
On the same count and under the same terms, then `COC(=O)CCCC(=O)Nc1cccc2cc(C(=O)Nc3ccc(C#N)cc3C(=O)O)[nH]c12`, with 0.5 µg/mL (≈ 1.11 µM); and `N#Cc1ccc(NC(=O)c2cc3cccc(NC(=O)c4ccc(-c5ccccc5)cc4)c3[nH]2)c(C(=O)O)c1`, with 0.5 µg/mL (≈ 0.999 µM).
Consider `N#Cc1ccc(NC(=O)c2noc3ccc(NCC4CC4)cc23)c(C(=O)O)c1`, for which the MIC turned out to be 0.5 µg/mL (≈ 1.33 µM).
Still for that read-out and setting: as for `N#Cc1ccc(NC(=O)c2cc3cccc(NC(=O)C4CCCC4)c3[nH]2)c(C(=O)O)c1`, the figure is 2 µg/mL (≈ 4.8 µM); as for `Cn1cccc1-c1cnc(C(=O)Nc2ccc(C#N)cc2C(=O)O)o1`, 2 µg/mL (≈ 5.95 µM).
With `CSc1ncc(Cl)c(C(=O)Nc2ccc(Br)cc2C(=O)O)n1`, the MIC was more than 128 µg/mL.
As to `N#Cc1ccc(NC(=O)c2cc3cc(OCc4ccccc4)ccc3[nH]2)c(C(=O)O)c1`, the MIC came to 16 µg/mL (≈ 38.9 µM).
Still for that read-out and setting: then `N#Cc1ccc(NC(=O)c2cncc(Oc3ccccc3)c2)c(C(=O)O)c1`, with 8 µg/mL (≈ 22.3 µM); and `N#Cc1ccc(NC(=O)C2=NS(=O)(=O)c3ccccc32)c(C(=O)O)c1`, with more than 128 µg/mL.
Take `N#Cc1ccc(NC(=O)c2cc(CCCC3CCCCC3)on2)c(C(=O)O)c1`: the MIC came to 0.25 µg/mL (≈ 0.655 µM).
Still for that read-out and setting: as for `COCCOCCCSc1ccc(C(=O)Nc2ccc(Br)cc2C(=O)O)cn1`, the figure is 0.5 µg/mL (≈ 1.07 µM); as for `Cc1ccccc1-c1cncc(C(=O)Nc2ccc(C#N)cc2C(=O)O)c1`, 8 µg/mL (≈ 22.4 µM); as for `N#Cc1ccc(NC(=O)c2nc(-c3ccccc3)cs2)c(C(=O)O)c1`, 8 µg/mL (≈ 22.9 µM).
Take `CC(C)N(c1ccc2onc(C(=O)Nc3ccc(C#N)cc3C(=O)O)c2c1)S(C)(=O)=O`: the MIC is 0.125 µg/mL (≈ 0.283 µM).
For `O=C(Nc1ccc(Cl)cc1C(=O)O)c1ncc(-c2ccccc2)o1`, the MIC stood at 1 µg/mL (≈ 2.92 µM).
Regarding `N#Cc1ccc(NC(=O)c2cc(-c3ccccc3OCC3C=CCCC3)on2)c(C(=O)O)c1` (stereo not drawn), the MIC was 2 µg/mL (≈ 4.51 µM).
As for `N#Cc1ccc(NC(=O)c2cccc3c2CCN(Cc2ccccc2)S3(=O)=O)c(C(=O)O)c1`, the MIC was 8 µg/mL (≈ 17.3 µM).
Consider `N#Cc1ccc(NC(=O)c2cncc(-c3ccco3)c2)c(C(=O)O)c1`, for which the MIC was 4 µg/mL (≈ 12 µM).
Still for that read-out and setting: then `COc1ccc2oc(C(=O)Nc3ccc(C#N)cc3C(=O)O)cc2c1`, with 2 µg/mL (≈ 5.95 µM); and `CCCN(CCC)S(=O)(=O)c1ccc2onc(C(=O)Nc3ccc(C#N)cc3C(=O)O)c2c1`, with 0.25 µg/mL (≈ 0.531 µM).
Still for that read-out and setting: as for `Cn1c(C(=O)Nc2ccc(C#N)cc2C(=O)O)cc2cccc(-c3ccccc3)c21`, the figure is 0.25 µg/mL (≈ 0.632 µM).
Turning to `N#Cc1ccc(NC(=O)c2ccc(N3CCCCC3)nc2)c(C(=O)O)c1`, the MIC was 8 µg/mL (≈ 22.8 µM).
Still for that read-out and setting: as for `N#Cc1ccc(NC(=O)c2cc3cccc4c3n2CCC4Oc2ccccc2)c(C(=O)O)c1` (stereo not drawn), the figure is 0.25 µg/mL (≈ 0.571 µM).
Same read-out and setting: as for `COc1ccc(-c2cnc(C(=O)Nc3ccc(C#N)cc3C(=O)O)o2)cc1`, the figure is 1 µg/mL (≈ 2.75 µM); as for `CC(=O)Nc1ccc(-c2cc3onc(C(=O)Nc4ccc(C#N)cc4C(=O)O)c3cc2NC(C)=O)c(C(F)(F)F)c1`, 0.03 µg/mL (≈ 0.0531 µM).
`O=C(Nc1ccc(Br)cc1C(=O)O)c1cncc(SCc2ccccc2)n1`: the MIC stood at 16 µg/mL (≈ 36 µM).
Still for that read-out and setting: as for `COc1ccccc1-c1cccc2cc(C(=O)Nc3ccc(C#N)cc3C(=O)O)n(C)c12`, the figure is 0.25 µg/mL (≈ 0.588 µM).
The same measure, in the same setting: then `CCCCCCCSc1ccc(C(=O)Nc2ccc(C#N)cc2C(=O)O)nn1`, with 0.015 µg/mL (≈ 0.0376 µM); and `N#Cc1ccc(NC(=O)c2cc3cccc(NC(=O)C4CC4)c3[nH]2)c(C(=O)O)c1`, with 1 µg/mL (≈ 2.57 µM).
On to `N#Cc1ccc(NC(=O)c2cc3cccc(NC(=O)CCCCc4ccccc4)c3[nH]2)c(C(=O)O)c1`, for which the MIC is 0.25 µg/mL (≈ 0.52 µM).
Same read-out and setting: as for `N#Cc1ccc(NC(=O)c2cc3cccc(NS(=O)(=O)Cc4ccccc4)c3[nH]2)c(C(=O)O)c1`, the figure is 0.125 µg/mL (≈ 0.263 µM); as for `CCCCC(C)Sc1ccc(C(=O)Nc2ccc(C#N)cc2C(=O)O)cn1` (stereo not drawn), 0.125 µg/mL (≈ 0.326 µM).
On the same count and under the same terms, then `N#Cc1ccc(NC(=O)c2cc3cccc4c3n2CCC4O)c(C(=O)O)c1` (stereo not drawn), with 0.5 µg/mL (≈ 1.38 µM); and `COCCOCCCSc1ccc(C(=O)Nc2ccc(Cl)cc2C(=O)O)cn1`, with 4 µg/mL (≈ 9.41 µM); and `N#Cc1ccc(NC(=O)c2cc(CO)on2)c(C(=O)O)c1`, with 8 µg/mL (≈ 27.9 µM).
On to `Cn1c(C(=O)Nc2ccc(C#N)cc2C(=O)O)cc2ccc(-c3ccccc3F)cc21`, for which the MIC stood at 0.5 µg/mL (≈ 1.21 µM).
`COc1ccc(-c2cc(C(=O)Nc3ccc(Cl)cc3C(=O)O)no2)cc1`: the MIC is 0.25 µg/mL (≈ 0.671 µM).
Consider `Cn1c(C(=O)Nc2ccc(C#N)cc2C(=O)O)cc2cccc(O/C=C3/COC(C)(C)O3)c21`, for which the MIC is 0.25 µg/mL (≈ 0.559 µM).
Regarding `Cc1noc(C)c1-c1ccc2c(C(=O)Nc3ccc(C#N)cc3C(=O)O)noc2c1`, the MIC was found to be 0.125 µg/mL (≈ 0.311 µM).
On the same count and under the same terms, as for `CN(c1ccc(Cl)cc1)S(=O)(=O)c1cncc(C(=O)Nc2ccc(Br)cc2C(=O)O)c1`, the figure is 1 µg/mL (≈ 1.91 µM); as for `CCCCCOc1cccc2cc(C(=O)Nc3ccc(C#N)cc3C(=O)O)n(C)c12`, 0.125 µg/mL (≈ 0.308 µM).
Still for that read-out and setting: as for `N#Cc1ccc(NC(=O)c2noc3cc(-c4ccc([N+](=O)[O-])cc4C(F)(F)F)c([N+](=O)[O-])cc23)c(C(=O)O)c1`, the figure is 0.03 µg/mL (≈ 0.0554 µM); as for `N#Cc1ccc(NC(=O)c2noc3ccc(NS(=O)(=O)Cc4ccccc4)cc23)c(C(=O)O)c1`, 0.125 µg/mL (≈ 0.262 µM); as for `N#Cc1ccc(NC(=O)c2cc3cccc(NC(=O)c4cccc(F)c4)c3[nH]2)c(C(=O)O)c1`, 0.5 µg/mL (≈ 1.13 µM).
On the same count and under the same terms, then `Cc1sc(C(=O)Nc2ccc(C#N)cc2C(=O)O)cc1S(=O)(=O)N(CCO)Cc1ccccc1`, with 16 µg/mL (≈ 32 µM); and `Cc1sc(C(=O)Nc2ccc(C#N)cc2C(=O)O)cc1S(=O)(=O)N1CCN(c2ccccn2)CC1`, with 32 µg/mL (≈ 62.6 µM).
Regarding `Cn1c(C(=O)Nc2ccc(C#N)cc2C(=O)O)cc2cccc(S(=O)(=O)c3ccccc3)c21`, the MIC stood at 0.125 µg/mL (≈ 0.272 µM).
For the compound `O=C(Nc1ccc(Br)cc1C(=O)O)c1cccc(SCc2ccccc2)n1`, the MIC is 16 µg/mL (≈ 36.1 µM).
On the same count and under the same terms, as for `N#Cc1ccc(NC(=O)c2cc3cccc(NC(=O)Cc4ccccc4Cl)c3[nH]2)c(C(=O)O)c1`, the figure is 0.25 µg/mL (≈ 0.529 µM); as for `CC(=O)OCCCCSc1ccc(C(=O)Nc2ccc(C#N)cc2C(=O)O)cn1`, 0.25 µg/mL (≈ 0.605 µM).
Same read-out and setting: then `Cn1c(C(=O)Nc2ccc(C#N)cc2C(=O)O)cc2ccc(NS(=O)(=O)c3cccs3)cc21`, with 0.5 µg/mL (≈ 1.04 µM).
On to `N#Cc1ccc(NC(=O)c2noc3c2CCCC3)c(C(=O)O)c1`, for which the MIC stood at 0.5 µg/mL (≈ 1.61 µM).
Take `COc1ccccc1CC(=O)Nc1cccc2cc(C(=O)Nc3ccc(C#N)cc3C(=O)O)[nH]c12`: the MIC came to 0.5 µg/mL (≈ 1.07 µM).
Still for that read-out and setting: as for `Cn1c(C(=O)Nc2ccc(C#N)cc2C(=O)O)cc2c(Br)cc(Br)c(N)c21`, the figure is 0.5 µg/mL (≈ 1.02 µM); as for `CCCCCCC(=O)Nc1cccc2cc(C(=O)Nc3ccc(C#N)cc3C(=O)O)[nH]c12`, 0.5 µg/mL (≈ 1.16 µM).
As to `N#Cc1ccc(NC(=O)c2cc3cccc(NC(=O)Cc4cccc5ccccc45)c3[nH]2)c(C(=O)O)c1`, the MIC was found to be 0.125 µg/mL (≈ 0.256 µM).
Consider `O=C(Nc1ccc(Br)cc1C(=O)O)c1nnc(SCc2ccccc2)s1`, for which the MIC turned out to be 0.125 µg/mL (≈ 0.278 µM).
Same read-out and setting: as for `CC(C)CN1C(=O)c2ccc(C(=O)Nc3ccc(Br)cc3C(=O)O)cc2C1=O`, the figure is 2 µg/mL (≈ 4.49 µM); as for `CCCCS(=O)(=O)N(c1ccc2cc(C(=O)Nc3ccc(C#N)cc3C(=O)O)n(C)c2c1)S(=O)(=O)CCCC`, 2 µg/mL (≈ 3.48 µM).
On the same count and under the same terms, as for `COc1ccc2c(C(=O)Nc3ccc(C#N)cc3C(=O)O)noc2c1`, the figure is 0.5 µg/mL (≈ 1.48 µM); as for `Cn1c(C(=O)Nc2ccc(C#N)cc2C(=O)O)cc2cccc(O)c21`, 1 µg/mL (≈ 2.98 µM).

These data come from patent US20040110802A1, “Antibacterial benzoic acid derivatives” (priority 2002, published 2004).
